Assay [1] is described as follows: Use of PQQ for ameliorating or treating menstrual cycle disorders (oral tablets, six months, vitamin C control). In kind it is in vivo, human. The settings on record: preliminary experimental data. On the procedure: (§1) The criteria for menstrual cycle disorders are as follows: 1. Early menstruation: Early menstruation refers to a shortened menstrual cycle that is shorter than 21 days and occurs for more than two consecutive cycles. It is a biphasic basal body temperature of ovulatory functional uterine bleeding, a short follicular phase of only 7 or 8 days; or a luteal phase of less than 10 days, or a temperature rise of less than 0.5° C. 2. Delayed menstruation: Menstruation is missed for more than 7 days, or even 40-50 days, and symptoms appear for more than 2 menstrual cycles. […] 3. Prolonged menstruation: The symptoms of this type of menstrual disorder are mainly a normal menstrual cycle but a prolonged menstrual period, lasting more than 7 days, or even up to 2 weeks before ending. Those with inflammation usually experience lower abdominal pain, which is aggravated during menstruation. Usually, the amount of leucorrhea is heavy, yellow or yellowish-white, thick, and odorous. Those with incomplete corpus luteum atrophy are also accompanied by heavy menstruation; those with prolonged endometrial repair still experience a small amount of persistent vaginal bleeding after the normal menstrual period. 4. Irregular menstruation: Menstruation is early or late, and the cycle is shorter than 21 days or longer than 35 days. No endometriosis. […]

Assay [2] is described as follows: Use of PQQ for preventing menstrual cycle disorders (oral tablets, six months, vitamin C control). In kind it is in vivo, human. The note with it: preliminary experimental data. On the procedure: as §1

Structures are written as SMILES.

For `O=C(O)c1cc(C(=O)O)c2c(n1)C(=O)C(=O)c1cc(C(=O)O)[nH]c1-2` [PQQ, 4,5-dioxo-1H-pyrrolo[2,3-f]quinoline-2,7,9-tricarboxylic acid], the “effect on alleviating or treating menstrual cycle disorders compared with a placebo” value in assay [1] was “significant effect”. In assay [2], the “effect on preventing menstrual cycle disorders compared with a placebo” value is “significant effect”.

These data come from patent US20260144786A1, “METHOD FOR TREATING MENSTRUAL CYCLE DISORDERS” (Guangzhou HuTong Youwu Biotechnology Co., Ltd, priority 2023, published 2026).
